Measurements as given in patent US7858613B2, “Substituted benzo-condensed cycloheptanone derivatives and their use for producing drugs” (Gruenenthal GmbH, priority 2005, dated 2010).

Key:
human CB1 receptor = biological target: T1, human CB1 receptor (Homo sapiens, UniProt P21554); assay: Study on the human CB1 receptor, [3H]CP55,940 displacement on recombinant membranes; assay type: binding; conditions: 10 μM test substance; 1 nM [3H]CP55,940; human recombinant cell membranes
T1 construct: purchased Perkin Elmer RBHCB1M
Protocol: V. Functional Study on the Human CB1 Receptor
50 mM TRIS (from Fluka, Cat. No. 93349); 2.5 mM EDTA (from Fluka Cat. No. 03680); 5 mM MgCl2 (from Merck, Cat. No. 1.05833); 0.5 mg/ml BSA (from Sigma Cat. No. A-2153)
The membranes (RBHCB1M, from Perkin Elmer (human recombinant cell membranes)) were supplied in aliquots of 1 ml each in dry ice and stored at −80° C. The protein concentration of the batches was around 6 mg/ml. For the test, in each case 1 ml was thawed rapidly and diluted with 7 ml of incubation buffer (1:8). 20 μl of this dilution were used in the test. This corresponded to a protein content of approx. 15 μg in the batch.
MTP from Costar® of the “U type” (assay MTP; Cat. No. 3794) was used. The pipetting sequence is reproduced in Table 1 below.
After the pipetting operation had ended, a lid was placed on the MTP and the incubation was effected at 25° C. for 90 min.
Subsequently, the samples were removed by suction with the aid of a Brandel cell harvester (model MPXRI-96T) through a GF/B Unifilter MTP (from Packard, Cat. No. 6005177) presoftened with 0.05% PEI. The samples were washed twice with 200 ml of ice-cooled incubation buffer per 96-well MTP. Thereafter, the plate was dried in a drying cabinet +60° C. for 1 h. […] After a wait time of 1 h, the plate was analyzed on a “Trilux” from Wallac.

human CB2 receptor = biological target: T2, human CB2 receptor (Homo sapiens, UniProt P34972); assay: Affinity for cannabinoid receptor CB2, [3H]-CP 55,940 displacement on HEK-293EBNA membranes; conditions: 10 μM test substance; 0.33 nM [3H]-CP 55,940; percent inhibition of specific binding
T2 construct: expressed in transfected cells; host or cells: HEK-293EBNA cells (membranes)
From the text: VI. Determination of the Affinity for the Cannabinoid Receptor CB2 (CB2 Receptor):
To determine the affinity of the inventive compounds for the cannabinoid receptor, membranes from human recombinant HEK-293EBNA cells were used, which had been transfected stably with the human CB2 receptor. The radioligand used was tritium-labeled 5-(1,1-dimethylheptyl)-2-(5-hydroxypropyl)cyclohexyl)-1-alpha,2-beta,5-alpha)phenol ([3]H—CP 55,940 with 103.4 Ci/mmol, 1 mCi/ml). The determination was effected in a test buffer composed of 50 mM Tris-HCl, 2.5 mM EDTA, 5 mM MgCl2 and 1.0 mg/ml of fatty acid-free BSA. The test substances were each dissolved in DMSO.
The affinity of the inventive compounds for the CB2 receptor is determined by their ability to displace [3]H—CP 55,940 from CB2 receptors in membranes from HEK-293EBNA cells. To this end, in each case 8 μg of the membranes (20 μl of a solution from membranes in a concentration of 400 μg/ml) are incubated in wells on a microtiter plate with a 0.33 nM solution of ^[3]H-CP […] (120 Ci/mmol) in a total volume of test buffer of 200 μl at 30° C. for 90 minutes.
Subsequently, either the test substances or WIN 55212-2 to determine the unspecific binding, in each case dissolved in DMSO, are added to the wells so as to result in each case in a concentration of the corresponding substances of 10 μM.
Incubation at 30° C. is continued for a further 40 minutes. The binding reaction was ended by rapid filtration through GF/C filter paper which had been treated with 0.05% PEI using a Brandel cell harvester with 96 wells. The filters are washed nine times with 0.5 ml of ice-cooled washing buffer ([…] Tris-HCl, 5 mM MgCl2, 2.5 mM EDTA, 2% BSA, pH 7.4), air-dried and placed in scintillation fluid, and the radioactivity is determined with the aid of a scintillation counter.
The percentage displacement of the radioactive ligand ^[3]H-CP 55,940 from its binding to the CB2 receptor is reported as percent inhibition of the specific binding.

T2 sequence (P34972 whole entry): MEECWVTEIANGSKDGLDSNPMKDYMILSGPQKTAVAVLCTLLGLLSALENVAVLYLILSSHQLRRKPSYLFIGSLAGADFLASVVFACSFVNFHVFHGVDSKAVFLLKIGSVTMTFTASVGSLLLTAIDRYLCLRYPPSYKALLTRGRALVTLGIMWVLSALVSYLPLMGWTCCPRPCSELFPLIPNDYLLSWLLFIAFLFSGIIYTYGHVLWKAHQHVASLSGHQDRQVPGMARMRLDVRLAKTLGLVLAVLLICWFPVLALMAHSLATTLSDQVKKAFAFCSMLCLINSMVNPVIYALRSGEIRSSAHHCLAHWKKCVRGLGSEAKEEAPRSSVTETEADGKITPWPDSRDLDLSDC
T1 sequence (P21554 whole entry): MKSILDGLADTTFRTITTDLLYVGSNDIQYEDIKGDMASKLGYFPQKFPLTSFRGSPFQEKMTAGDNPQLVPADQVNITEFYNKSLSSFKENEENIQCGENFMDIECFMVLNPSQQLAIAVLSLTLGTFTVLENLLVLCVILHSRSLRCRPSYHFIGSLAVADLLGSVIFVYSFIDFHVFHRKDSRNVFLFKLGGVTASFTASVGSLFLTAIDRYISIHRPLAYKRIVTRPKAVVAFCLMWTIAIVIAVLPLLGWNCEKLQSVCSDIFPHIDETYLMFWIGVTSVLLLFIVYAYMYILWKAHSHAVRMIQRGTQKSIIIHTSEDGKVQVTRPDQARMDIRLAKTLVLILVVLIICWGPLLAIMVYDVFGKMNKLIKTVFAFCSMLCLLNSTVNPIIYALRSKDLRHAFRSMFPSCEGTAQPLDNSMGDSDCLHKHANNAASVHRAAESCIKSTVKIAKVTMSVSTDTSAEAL

| Compound | inhibition at 10 µM (human CB1 receptor) [%] | inhibition at 10 µM (human CB2 receptor) [%] |
| --- | --- | --- |
| O=C(Nc1ccccc1)OCC1(COC(=O)Nc2ccccc2)CCSc2ccccc2C1=O [Example Compound 2, Phenylcarbamic acid 4-(phenylcarbamoyloxymethyl)-5-oxo-2,3,4,5-tetrahydro-benzo[b]thiepin-4-ylmethyl ester] | 42 | 74.6 |
| O=C(NC1CCCCC1)OCC1(COC(=O)NC2CCCCC2)CCCc2ccccc2C1=O [Example Compound 8, Cyclohexylcarbamic acid 6-(cyclohexylcarbamoyloxymethyl)-5-oxo-6,7,8,9-tetrahydro-5H-benzocyclohepten-6-ylmethyl ester] | 47 | 76.2 |
